Patent US12577537B2, “Method for culturing primary cancer cells through simulated microgravity-induced reprogramming and applications thereof” (SHANDONG UNIVERSITY, priority 2024, dated 2026)

Columns and labels:
[1] = in vitro; settings: human
Description: (§1) Wherein, FIGS. 12D to 12I show the dose-response relationships of breast cancer cells (D, F, H) and normal breast tissue cells (E, G, I) from three patients (38, 7, and 71) to epirubicin; FIGS. 12J to 12O show the dose-response relationships of breast cancer cells (J, L, N) and normal breast tissue cells (K, M, O) from the same three patients (38, 7, and 71) to cyclophosphamide.
(§2) The inventors conducted drug-related experiments using the cancer cell models prepared by the method of the present application. FIG. 12A lists 8 types of common drugs used in clinical treatment of breast cancer, including epirubicin, cyclophosphamide, docetaxel, etc. This example selected two of them (FIG. 12B: epirubicin, FIG. 12C: cyclophosphamide) to conduct drug sensitivity tests on breast cancer cells from different patients cultivated in Example 5.

[2] = tested on: normal breast tissue cells; experiment: Drug sensitivity test on SMGIR-cultured normal breast tissue (cancer-adjacent) cells from patients; type: cell-based; settings: Homo sapiens
Description: as §1, §2

[3] = tested on: breast cancer cells; experiment: Drug sensitivity test on SMGIR-cultured breast cancer cells from patients; type: cell-based; settings: Homo sapiens
Description: as §1, §2

For `O=P1(N(CCCl)CCCl)NCCCO1` (stereo not shown) [cyclophosphamide], which viability at 4000 μM [1] is on record?
The viability at 4000 μM was 70 to 80%.

With `COc1cccc2c1C(=O)c1c(O)c3c(c(O)c1C2=O)C[C@@](O)(C(=O)CO)C[C@@H]3O[C@H]1C[C@H](N)[C@@H](O)[C@H](C)O1` [epirubicin] as the compound, how does the IC50 ([2]; normal breast tissue cells from patient 7, SMGIR-cultured (FIG. 12G)) read?
The IC50 was 0.651 µM.

What about the IC50 ([2]; normal breast tissue cells from patient 38, SMGIR-cultured (FIG. 12E)) of the same compound?
The IC50 was 0.357 µM.

And the IC50 ([2]; normal breast tissue cells from patient 71, SMGIR-cultured (FIG. 12I))?
Its IC50 is 0.766 µM.

What about the IC50 ([3]; 12 h, breast cancer cells from patient 71, SMGIR-cultured (FIG. 12H)) of the same compound?
The IC50 was 0.454 µM.

And the IC50 ([3]; breast cancer cells from patient 7, SMGIR-cultured (FIG. 12F))?
The IC50 was 0.583 µM.

And the IC50 ([3]; breast cancer cells from patient 38, SMGIR-cultured (FIG. 12D))?
The IC50 was 0.369 µM.
